Experimental data taken from US20060009470A1, “Method for specifically potentiating N-type Ca2+ channel activity” (Shuji KANEKO, priority 2001, published 2006).

Columns and labels:
Type in all cases: cell-based, rabbit
[1] = molecular target: T1, α1A channel (voltage-dependent calcium channel α1A with α2δ1 and β1b) (Oryctolagus cuniculus, UniProt P27884); test: two electrode voltage-clamp, Ba2+ current in Xenopus oocytes expressing α1A channel; conditions: 100 nM test compound; 0 mV, 200 ms test pulse; Xenopus oocyte
T1 construct: expressed in transfected cells; host or cells: Xenopus laevis oocytes injected with mRNAs
Protocol: (§1) Ovary was removed from the abdominal cavity of Xenopus laevis and treated with collagenase to remove follicle covering the oocyte (Kinoshita et al., J. Biol. Chem. 276, 28731-28738 (2001)). A combination of three kinds of mRNAs (16.7 ng each) of voltage-dependent calcium channel subunits α1A, α1B or α1E of rabbit and human α2δ1 and β1b (prepared according to the method described in Kinoshita et al., supra or a similar method) was mixed and injected into the oocyte and this was incubated in modified Birth's saline (88 mM NaCl, 1 mM KCl, 0.41 mM CaCl2, 0.33 mM Ca(NO3)2, 0.82 mM MgSO4, 2.4 mM NaHCO3, 7.5 mM Tris-HCl, 10 U/ml penicillin, 10 μg/ml streptomycin, pH 7.6) at 22° C. for 2 to 4 days.
(§2) The oocyte prepared in the above was placed in a chamber filled with a Ba^2+-containing recording liquid (10 mM Ba(OH)2, 90 mM NaOH, 2 mM KOH, 5 mM Hepes, 0.3 mM niflumic acid, methanesulfonic acid, pH 7.4) and fixed at −80 mV using two glass electrodes. A test pulse (200 ms width) toward 0 mV was applied at 30 second intervals and the whole-cell membrane current was measured. A +100 mV depolarization prepulse (100 ms width) that ends before 40 ms was applied every other pulse to eliminate the effect of G protein βγ subunit that binds with Ca^2+ channel to suppress opening (Kinoshita et al., supra). […]

[2] = molecular target: T2, α1E channel (voltage-dependent calcium channel α1E with α2δ1 and β1b) (Oryctolagus cuniculus, UniProt Q02343); test: two electrode voltage-clamp, Ba2+ current in Xenopus oocytes expressing α1E channel; conditions: 100 nM test compound; 0 mV, 200 ms test pulse; Xenopus oocyte
T2 construct: expressed in transfected cells; host or cells: Xenopus laevis oocytes injected with mRNAs
Protocol: as §1, §2

[3] = molecular target: T3, α1B channel (voltage-dependent calcium channel α1B with α2δ1 and β1b) (Oryctolagus cuniculus, UniProt Q05152); test: two electrode voltage-clamp, Ba2+ current in Xenopus oocytes expressing α1B channel
T3 construct: expressed in transfected cells; host or cells: Xenopus laevis oocytes injected with mRNAs
T3 sequence (Q05152 whole entry): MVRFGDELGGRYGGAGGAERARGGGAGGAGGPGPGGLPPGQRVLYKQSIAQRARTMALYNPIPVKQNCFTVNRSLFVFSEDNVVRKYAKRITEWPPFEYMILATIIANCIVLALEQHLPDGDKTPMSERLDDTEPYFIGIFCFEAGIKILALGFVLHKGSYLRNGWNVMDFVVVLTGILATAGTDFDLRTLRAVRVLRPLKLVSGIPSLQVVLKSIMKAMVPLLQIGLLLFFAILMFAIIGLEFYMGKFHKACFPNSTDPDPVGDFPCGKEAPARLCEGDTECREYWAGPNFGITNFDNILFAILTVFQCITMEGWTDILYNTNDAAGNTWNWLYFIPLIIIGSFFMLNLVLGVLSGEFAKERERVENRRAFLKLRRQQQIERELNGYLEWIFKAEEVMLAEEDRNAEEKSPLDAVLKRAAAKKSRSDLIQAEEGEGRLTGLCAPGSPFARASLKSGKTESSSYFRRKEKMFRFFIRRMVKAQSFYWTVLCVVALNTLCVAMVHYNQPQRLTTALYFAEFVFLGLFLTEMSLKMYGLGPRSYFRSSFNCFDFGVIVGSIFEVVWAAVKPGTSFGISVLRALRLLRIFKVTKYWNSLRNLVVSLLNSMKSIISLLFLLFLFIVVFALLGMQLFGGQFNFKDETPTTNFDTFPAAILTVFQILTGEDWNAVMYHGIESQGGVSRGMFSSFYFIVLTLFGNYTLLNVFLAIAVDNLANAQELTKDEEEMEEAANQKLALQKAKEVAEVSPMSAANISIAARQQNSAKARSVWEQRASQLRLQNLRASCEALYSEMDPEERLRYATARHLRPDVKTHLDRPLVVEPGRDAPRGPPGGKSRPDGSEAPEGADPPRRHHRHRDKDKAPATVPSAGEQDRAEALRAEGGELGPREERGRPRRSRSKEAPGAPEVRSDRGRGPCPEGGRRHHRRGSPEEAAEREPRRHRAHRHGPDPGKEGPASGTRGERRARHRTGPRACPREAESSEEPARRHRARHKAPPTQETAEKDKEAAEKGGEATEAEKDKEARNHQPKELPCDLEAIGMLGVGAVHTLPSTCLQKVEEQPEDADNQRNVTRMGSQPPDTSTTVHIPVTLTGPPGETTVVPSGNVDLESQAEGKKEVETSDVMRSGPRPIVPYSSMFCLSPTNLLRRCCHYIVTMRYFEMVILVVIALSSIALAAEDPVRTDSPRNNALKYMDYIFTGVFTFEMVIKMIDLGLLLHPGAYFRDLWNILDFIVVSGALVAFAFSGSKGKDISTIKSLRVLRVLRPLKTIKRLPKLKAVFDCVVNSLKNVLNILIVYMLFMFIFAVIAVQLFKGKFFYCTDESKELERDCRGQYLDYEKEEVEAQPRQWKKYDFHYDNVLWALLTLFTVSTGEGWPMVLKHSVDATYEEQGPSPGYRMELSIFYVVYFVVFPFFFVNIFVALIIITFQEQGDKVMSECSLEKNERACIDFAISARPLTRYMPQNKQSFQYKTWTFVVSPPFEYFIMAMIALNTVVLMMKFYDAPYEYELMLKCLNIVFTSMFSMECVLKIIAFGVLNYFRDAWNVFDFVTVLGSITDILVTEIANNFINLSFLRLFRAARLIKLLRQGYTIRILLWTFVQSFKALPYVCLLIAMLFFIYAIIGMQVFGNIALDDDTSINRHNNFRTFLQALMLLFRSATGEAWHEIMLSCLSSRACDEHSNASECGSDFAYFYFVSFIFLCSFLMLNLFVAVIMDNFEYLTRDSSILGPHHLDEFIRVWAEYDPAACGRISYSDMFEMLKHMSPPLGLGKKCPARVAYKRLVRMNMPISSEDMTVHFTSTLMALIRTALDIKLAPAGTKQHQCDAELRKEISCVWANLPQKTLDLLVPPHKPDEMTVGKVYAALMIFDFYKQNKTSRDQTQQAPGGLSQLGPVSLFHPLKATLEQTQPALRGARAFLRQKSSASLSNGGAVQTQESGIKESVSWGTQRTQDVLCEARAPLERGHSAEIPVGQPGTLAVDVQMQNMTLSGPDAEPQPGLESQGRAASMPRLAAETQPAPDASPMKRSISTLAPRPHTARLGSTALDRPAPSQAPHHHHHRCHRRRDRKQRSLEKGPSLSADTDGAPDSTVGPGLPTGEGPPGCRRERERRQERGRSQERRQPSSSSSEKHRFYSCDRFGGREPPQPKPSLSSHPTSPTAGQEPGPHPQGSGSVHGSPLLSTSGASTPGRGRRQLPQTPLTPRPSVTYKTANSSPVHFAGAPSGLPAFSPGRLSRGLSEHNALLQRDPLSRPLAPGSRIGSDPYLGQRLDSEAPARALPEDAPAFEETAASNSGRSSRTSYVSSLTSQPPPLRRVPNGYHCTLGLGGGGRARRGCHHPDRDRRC
T3 sequence (P54289 25-956 partner): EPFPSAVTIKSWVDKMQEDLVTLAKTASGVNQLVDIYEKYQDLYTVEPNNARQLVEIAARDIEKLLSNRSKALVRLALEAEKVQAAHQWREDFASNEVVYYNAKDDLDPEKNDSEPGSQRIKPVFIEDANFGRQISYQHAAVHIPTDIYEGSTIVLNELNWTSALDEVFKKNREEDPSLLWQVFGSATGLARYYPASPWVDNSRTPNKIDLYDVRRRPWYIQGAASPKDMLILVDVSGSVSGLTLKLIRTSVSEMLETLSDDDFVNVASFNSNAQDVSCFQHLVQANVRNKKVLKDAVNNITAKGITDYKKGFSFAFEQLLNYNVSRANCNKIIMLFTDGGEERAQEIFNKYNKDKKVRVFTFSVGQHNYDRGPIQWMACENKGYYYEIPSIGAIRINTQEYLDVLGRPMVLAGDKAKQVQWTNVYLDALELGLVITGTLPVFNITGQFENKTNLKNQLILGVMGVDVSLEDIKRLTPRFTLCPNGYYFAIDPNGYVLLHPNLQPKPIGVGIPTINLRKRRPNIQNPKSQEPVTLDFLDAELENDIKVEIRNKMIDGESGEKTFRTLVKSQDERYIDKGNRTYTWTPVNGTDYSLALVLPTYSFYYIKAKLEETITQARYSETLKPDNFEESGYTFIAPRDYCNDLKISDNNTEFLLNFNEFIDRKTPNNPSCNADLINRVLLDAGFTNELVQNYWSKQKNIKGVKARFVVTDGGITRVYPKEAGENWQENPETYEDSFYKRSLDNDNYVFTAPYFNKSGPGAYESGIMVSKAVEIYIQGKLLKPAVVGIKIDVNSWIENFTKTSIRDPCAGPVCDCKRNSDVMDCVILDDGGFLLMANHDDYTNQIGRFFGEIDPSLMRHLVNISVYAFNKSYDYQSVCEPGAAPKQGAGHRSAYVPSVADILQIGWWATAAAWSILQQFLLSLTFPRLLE
T3 sequence (P54289 957-1103 partner): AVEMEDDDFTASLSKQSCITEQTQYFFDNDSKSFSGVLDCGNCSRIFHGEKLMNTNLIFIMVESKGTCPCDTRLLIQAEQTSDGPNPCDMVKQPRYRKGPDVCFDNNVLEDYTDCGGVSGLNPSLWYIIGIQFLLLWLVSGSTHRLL
T3 sequence (Q02641 whole entry partner): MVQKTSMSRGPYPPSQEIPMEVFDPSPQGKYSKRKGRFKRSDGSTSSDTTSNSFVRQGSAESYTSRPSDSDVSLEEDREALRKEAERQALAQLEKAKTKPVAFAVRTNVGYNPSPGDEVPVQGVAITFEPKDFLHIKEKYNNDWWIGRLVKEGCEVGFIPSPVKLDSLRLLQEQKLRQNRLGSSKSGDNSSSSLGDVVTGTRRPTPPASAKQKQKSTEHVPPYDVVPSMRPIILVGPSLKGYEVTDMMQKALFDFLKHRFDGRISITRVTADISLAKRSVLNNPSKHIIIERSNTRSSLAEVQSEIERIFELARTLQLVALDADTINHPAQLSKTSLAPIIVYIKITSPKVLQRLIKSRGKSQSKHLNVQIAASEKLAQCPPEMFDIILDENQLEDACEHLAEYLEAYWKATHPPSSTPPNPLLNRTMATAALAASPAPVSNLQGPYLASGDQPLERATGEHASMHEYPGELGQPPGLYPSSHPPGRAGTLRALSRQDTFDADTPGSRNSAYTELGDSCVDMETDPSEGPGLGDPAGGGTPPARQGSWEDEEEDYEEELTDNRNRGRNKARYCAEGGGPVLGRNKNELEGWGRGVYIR
Protocol: as §1
The oocyte prepared in the above was placed in a chamber filled with a Ba^2+-containing recording liquid (10 mM Ba(OH)2, 90 mM NaOH, 2 mM KOH, 5 mM Hepes, 0.3 mM niflumic acid, methanesulfonic acid, pH 7.4) and fixed at −80 mV using two glass electrodes. A test pulse (200 ms width) toward 0 mV was applied at 30 second intervals and the whole-cell membrane current was measured. A +100 mV depolarization prepulse (100 ms width) that ends before 40 ms was applied every other pulse to eliminate the effect of G protein βγ subunit that binds with Ca^2+ channel to suppress opening (Kinoshita et al., supra). Based on the Ba^2+ current (IBa) as a Ca^2+ channel current, the leak current was corrected by P/4 protocol. N-(4-Acetyl-1-piperazinyl)-p-fluorobenzamide monohydrate (hereinafter to be also referred to as a test compound) was dissolved in the recording liquid containing Ba^2+ and applied.

Compound: CC(=O)N1CCN(NC(=O)c2ccc(F)cc2)CC1.O [test compound, N-(4-Acetyl-1-piperazinyl)-p-fluorobenzamide monohydrate]
- effect on α1A channel current [1]: almost no effect
- effect on α1E channel current [2]: almost no effect
- effect on α1B channel current ([3]; 100 nM test compound, 0 mV, 200 ms test pulse, Xenopus oocyte): increase in the current
- influence on the voltage-dependency of α1B channel activation/inactivation ([3]; 100 nM test compound, varied depolarization stimulating potential and steady inactive state): almost no influence
- α1B channel current after return into basal solution and washing ([3]; after 100 nM test compound, washed): fell to the same level as that before the treatment
- potentiation of the current amplitude, channel specificity and concentration range ([3]; various concentrations, compared with α1A and α1E channels): α1B channel-specific potentiation of the current amplitude in a relatively narrow concentration range
